Molecules are shown by their SMILES.

For this experiment, the target named is T1, α2C receptor (Homo sapiens, UniProt P18825).
T1 sequence (P18825 1-462): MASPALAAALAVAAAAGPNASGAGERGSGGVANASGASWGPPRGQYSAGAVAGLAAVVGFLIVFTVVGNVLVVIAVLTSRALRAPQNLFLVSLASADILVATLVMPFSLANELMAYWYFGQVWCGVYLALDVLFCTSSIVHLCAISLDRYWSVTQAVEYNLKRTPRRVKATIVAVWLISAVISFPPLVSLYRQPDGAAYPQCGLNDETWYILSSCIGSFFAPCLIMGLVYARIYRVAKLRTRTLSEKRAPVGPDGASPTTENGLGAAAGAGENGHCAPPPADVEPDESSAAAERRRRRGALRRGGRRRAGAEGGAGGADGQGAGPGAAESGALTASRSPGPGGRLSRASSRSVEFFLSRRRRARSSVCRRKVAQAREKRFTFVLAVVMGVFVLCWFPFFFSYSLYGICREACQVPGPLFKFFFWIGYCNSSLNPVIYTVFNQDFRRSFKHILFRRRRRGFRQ
In words: Efficacy agonist activity (Emax, GTPγS assay) at α2C. Type of experiment: biochemical. The conditions noted are these: by definition: efficacy at α2C ≧30% Emax (GTPγS assay); functionally selective if also efficacy at α2A ≦35% Emax. The procedure: Efficacy agonist activity values (Emax, GTPγS assay) for α2A and α2C were determined by following the general procedure detailed by Umland et. al (“Receptor reserve analysis of the human α2c-adrenoceptor using [^35S]GTPγS and cAMP functional assays” European Journal of Pharmacology 2001, 411, 211-221). For the purposes of the present invention, a compound is defined to be a specific or at least functionally selective agonist of the α2C receptor subtype if the compound's efficacy at the α2C receptor is ≧30% Emax (GTPγS assay) and its efficacy at the α2A receptor is ≦35% Emax (GTPγS assay). Additionally, for the purposes of this invention, a compound is defined to be an antagonist of the α2C receptor subtype if the compound's efficacy at the α2C receptor is <30% Emax (GTPγS assay) and the Ki at the α2C receptor subtype was <500 nM, preferentially <200 nM, and most preferentially <20 nM.
In the case of `CN1OC2(CCc3c(cccc3-c3cncnc3)C2)N=C1N` (racemic) [(±)-5], the “evaluated to be active or functionally selective agonists of the α2C receptor subtype” value is “active or functionally selective agonists”.

Regarding `NC1=NCC2(CCc3c(cccc3-c3cncc(F)c3)C2)O1` (racemic) [(±)-108], the “evaluated to be active or functionally selective agonists of the α2C receptor subtype” value is “active or functionally selective agonists”.

For the compound `NC1=NCC2(CCc3c(cccc3-c3cc(F)cc(F)c3)C2)O1` (racemic) [(±)-104], the “evaluated to be active or functionally selective agonists of the α2C receptor subtype” value is “active or functionally selective agonists”.

For `NC1=NC[C@]2(CCc3c(cccc3-c3cc(F)cc(F)c3)C2)O1` [compound 112], the “evaluated to be active or functionally selective agonists of the α2C receptor subtype” value is listed as “active or functionally selective agonists”.

With `CN1OC2(CCc3cccc(-c4cncnc4)c3C2)N=C1N` (racemic) [(±)-5B], the “evaluated to be active or functionally selective agonists of the α2C receptor subtype” value is listed as “active or functionally selective agonists”.

Regarding `CN1OC2(CCc3ccc(-c4cncnc4)cc3C2)N=C1N` (racemic) [(±)-5F], the “evaluated to be active or functionally selective agonists of the α2C receptor subtype” value is given as “active or functionally selective agonists”.

As for `NC1=NC[C@]2(CCc3c(cccc3-c3cncnc3)C2)O1` [1f], the “evaluated to be active or functionally selective agonists of the α2C receptor subtype” value was “active or functionally selective agonists”.

`NC1=NC[C@]2(CCc3c(cccc3-c3cncc(F)c3)C2)O1` (racemic) [compound 113]: the “evaluated to be active or functionally selective agonists of the α2C receptor subtype” value is recorded as “active or functionally selective agonists”.

As for `NC1=NCC2(CCc3c(cccc3-c3cncnc3)C2)O1` (racemic) [(±)-1], the “evaluated to be active or functionally selective agonists of the α2C receptor subtype” value was “active or functionally selective agonists”.

Values taken from patent US20130079271A1, “REVERSED BIARYL SPIROAMINOOXAZOLINE ANALOGUES AS ALPHA2C ADRENERGIC RECEPTOR MODULATORS” (priority 2009, published 2013).
